From ChEMBL document CHEMBL1138706, “Synthesis and biological evaluation of novel taxoids designed for targeted delivery to tumors” (Bioorg Med Chem Lett, 2004)

Tests used:
A549 = assay: inhibitory concentration against the growth of Non-small-cell lung carcinoma A549 cell line after 72 hr of exposure; assay type: functional, cell-based; settings: Homo sapiens, A549, 72 h
MCF7 = assay: inhibitory concentration against the growth of breast cancer MCF-7 cell line after 72 hr of exposure; assay type: functional, cell-based; settings: Homo sapiens, MCF7, 72 h

Compound	IC50 (A549) [nM]	IC50 (MCF7) [nM]
C/C=C/C(=O)N[C@@H](c1cccs1)[C@@H](O)C(=O)O[C@H]1C[C@@]2(O)[C@@H](OC(=O)c3cc(OC)ccc3OC)[C@@H]3[C@]4(OC(C)=O)CO[C@@H]4C[C@H](O)[C@@]3(C)C(=O)[C@H](OC(C)=O)C(=C1C)C2(C)C	180	160
COc1ccc(OC)c(C(=O)O[C@H]2[C@@H]3[C@]4(OC(C)=O)CO[C@@H]4C[C@H](O)[C@@]3(C)C(=O)[C@H](OC(C)=O)C3=C(C)[C@@H](OC(=O)[C@H](O)[C@H](C=C(C)C)NC(=O)c4ccco4)C[C@]2(O)C3(C)C)c1	60	30
COc1ccc(OC)c(C(=O)O[C@H]2[C@@H]3[C@]4(OC(C)=O)CO[C@@H]4C[C@H](O)[C@@]3(C)C(=O)[C@H](OC(C)=O)C3=C(C)[C@@H](OC(=O)[C@H](O)[C@@H](NC(=O)c4ccco4)c4ccco4)C[C@]2(O)C3(C)C)c1	90	120
COc1ccc(OC)c(C(=O)O[C@H]2[C@@H]3[C@]4(OC(C)=O)CO[C@@H]4C[C@H](O)[C@@]3(C)C(=O)[C@H](OC(C)=O)C3=C(C)[C@@H](OC(=O)[C@H](O)[C@@H](NC(=O)c4ccccc4)c4ccccc4)C[C@]2(O)C3(C)C)c1	130	30
COc1ccc(OC)c(C(=O)O[C@H]2[C@@H]3[C@]4(OC(C)=O)CO[C@@H]4C[C@H](O)[C@@]3(C)C(=O)[C@H](OC(C)=O)C3=C(C)[C@@H](OC(=O)[C@H](O)[C@H](C=C(C)C)NC(=O)OC(C)(C)C)C[C@]2(O)C3(C)C)c1	40	40
COc1ccc(OC)c(C(=O)O[C@H]2[C@@H]3[C@]4(OC(C)=O)CO[C@@H]4C[C@H](O)[C@@]3(C)C(=O)[C@H](OC(C)=O)C3=C(C)[C@@H](OC(=O)[C@H](O)[C@@H](NC(=O)c4ccco4)c4cccs4)C[C@]2(O)C3(C)C)c1	50	60
COc1ccc(OC)c(C(=O)O[C@H]2[C@@H]3[C@]4(OC(C)=O)CO[C@@H]4C[C@H](O)[C@@]3(C)C(=O)[C@H](OC(C)=O)C3=C(C)[C@@H](OC(=O)[C@H](O)[C@H](C=C(C)C)NC(=O)c4cccs4)C[C@]2(O)C3(C)C)c1	40	30
COc1ccc(OC)c(C(=O)O[C@H]2[C@@H]3[C@]4(OC(C)=O)CO[C@@H]4C[C@H](O)[C@@]3(C)C(=O)[C@H](OC(C)=O)C3=C(C)[C@@H](OC(=O)[C@H](O)[C@@H](NC(=O)c4cccs4)c4ccco4)C[C@]2(O)C3(C)C)c1	100	60
CCCCOC(=O)N[C@@H](C=C(C)C)[C@@H](O)C(=O)O[C@H]1C[C@@]2(O)[C@@H](OC(=O)c3cc(OC)ccc3OC)[C@@H]3[C@]4(OC(C)=O)CO[C@@H]4C[C@H](O)[C@@]3(C)C(=O)[C@H](OC(C)=O)C(=C1C)C2(C)C	40	30
COc1ccc(OC)c(C(=O)O[C@H]2[C@@H]3[C@]4(OC(C)=O)CO[C@@H]4C[C@H](O)[C@@]3(C)C(=O)[C@H](OC(C)=O)C3=C(C)[C@@H](OC(=O)[C@H](O)[C@@H](NC(=O)c4ccccc4)c4cccs4)C[C@]2(O)C3(C)C)c1	> 3000	> 3000
CC(=O)O[C@@]12CO[C@@H]1C[C@H](O)[C@@]1(C)C(=O)[C@H](O)C3=C(C)[C@@H](OC(=O)[C@H](O)[C@@H](NC(=O)OC(C)(C)C)c4ccccc4)C[C@@](O)([C@@H](OC(=O)c4ccccc4)[C@H]21)C3(C)C [DOCETAXEL]	1000	1000
C/C=C/C(=O)N[C@@H](c1ccco1)[C@@H](O)C(=O)O[C@H]1C[C@@]2(O)[C@@H](OC(=O)c3cc(OC)ccc3OC)[C@@H]3[C@]4(OC(C)=O)CO[C@@H]4C[C@H](O)[C@@]3(C)C(=O)[C@H](OC(C)=O)C(=C1C)C2(C)C	160	130
COc1ccc(OC)c(C(=O)O[C@H]2[C@@H]3[C@]4(OC(C)=O)CO[C@@H]4C[C@H](O)[C@@]3(C)C(=O)[C@H](OC(C)=O)C3=C(C)[C@@H](OC(=O)[C@H](O)[C@H](C=C(C)C)NC(=O)c4ccccc4)C[C@]2(O)C3(C)C)c1	40	40
COc1ccc(OC)c(C(=O)O[C@H]2[C@@H]3[C@]4(OC(C)=O)CO[C@@H]4C[C@H](O)[C@@]3(C)C(=O)[C@H](OC(C)=O)C3=C(C)[C@@H](OC(=O)[C@H](O)[C@@H](NC(=O)OC(C)(C)C)c4ccccc4)C[C@]2(O)C3(C)C)c1	50	60
CC(=O)O[C@H]1C(=O)[C@@]2(C)[C@H]([C@H](OC(=O)c3ccccc3)[C@]3(O)C[C@H](OC(=O)[C@H](O)[C@@H](NC(=O)c4ccccc4)c4ccccc4)C(C)=C1C3(C)C)[C@]1(OC(C)=O)CO[C@@H]1C[C@@H]2O [PACLITAXEL]	1700	800
COc1ccc(OC)c(C(=O)O[C@H]2[C@@H]3[C@]4(OC(C)=O)CO[C@@H]4C[C@H](O)[C@@]3(C)C(=O)[C@H](OC(C)=O)C3=C(C)[C@@H](OC(=O)[C@H](O)[C@@H](NC(=O)c4ccccc4)c4ccco4)C[C@]2(O)C3(C)C)c1	220	210

Next, values leading:

IC50 (A549) [nM]	IC50 (MCF7) [nM]	Compound
40	50	COc1ccc(OC)c(C(=O)O[C@H]2[C@@H]3[C@]4(OC(C)=O)CO[C@@H]4C[C@H](O)[C@@]3(C)C(=O)[C@H](OC(C)=O)C3=C(C)[C@@H](OC(=O)[C@H](O)[C@@H](NC(=O)C=C(C)C)c4cccs4)C[C@]2(O)C3(C)C)c1
30	30	COc1ccc(OC)c(C(=O)O[C@H]2[C@@H]3[C@]4(OC(C)=O)CO[C@@H]4C[C@H](O)[C@@]3(C)C(=O)[C@H](OC(C)=O)C3=C(C)[C@@H](OC(=O)[C@H](O)[C@@H](NC(=O)OC(C)(C)C)c4cccs4)C[C@]2(O)C3(C)C)c1
40	40	CCCCOC(=O)N[C@@H](c1cccs1)[C@@H](O)C(=O)O[C@H]1C[C@@]2(O)[C@@H](OC(=O)c3cc(OC)ccc3OC)[C@@H]3[C@]4(OC(C)=O)CO[C@@H]4C[C@H](O)[C@@]3(C)C(=O)[C@H](OC(C)=O)C(=C1C)C2(C)C
20	20	COc1ccc(OC)c(C(=O)O[C@H]2[C@@H]3[C@]4(OC(C)=O)CO[C@@H]4C[C@H](O)[C@@]3(C)C(=O)[C@H](OC(C)=O)C3=C(C)[C@@H](OC(=O)[C@H](O)[C@H](C=C(C)C)NC(=O)C=C(C)C)C[C@]2(O)C3(C)C)c1
30	40	COc1ccc(OC)c(C(=O)O[C@H]2[C@@H]3[C@]4(OC(C)=O)CO[C@@H]4C[C@H](O)[C@@]3(C)C(=O)[C@H](OC(C)=O)C3=C(C)[C@@H](OC(=O)[C@H](O)[C@@H](NC(=O)OC(C)(C)C)c4ccco4)C[C@]2(O)C3(C)C)c1
30	10	C/C=C/C(=O)N[C@@H](C=C(C)C)[C@@H](O)C(=O)O[C@H]1C[C@@]2(O)[C@@H](OC(=O)c3cc(OC)ccc3OC)[C@@H]3[C@]4(OC(C)=O)CO[C@@H]4C[C@H](O)[C@@]3(C)C(=O)[C@H](OC(C)=O)C(=C1C)C2(C)C
30	40	COc1ccc(OC)c(C(=O)O[C@H]2[C@@H]3[C@]4(OC(C)=O)CO[C@@H]4C[C@H](O)[C@@]3(C)C(=O)[C@H](OC(C)=O)C3=C(C)[C@@H](OC(=O)[C@H](O)[C@@H](NC(=O)C=C(C)C)c4ccco4)C[C@]2(O)C3(C)C)c1
30	30	COc1ccc(OC)c(C(=O)O[C@H]2[C@@H]3[C@]4(OC(C)=O)CO[C@@H]4C[C@H](O)[C@@]3(C)C(=O)[C@H](OC(C)=O)C3=C(C)[C@@H](OC(=O)[C@H](O)[C@@H](NC(=O)c4cccs4)c4cccs4)C[C@]2(O)C3(C)C)c1
30	30	CCCCOC(=O)N[C@@H](c1ccco1)[C@@H](O)C(=O)O[C@H]1C[C@@]2(O)[C@@H](OC(=O)c3cc(OC)ccc3OC)[C@@H]3[C@]4(OC(C)=O)CO[C@@H]4C[C@H](O)[C@@]3(C)C(=O)[C@H](OC(C)=O)C(=C1C)C2(C)C
